Here are results for seven compounds from article PMC8395125, “Conjugation with Phospholipids as a Modification Increasing Anticancer Activity of Phenolic Acids in Metastatic Melanoma—In Vitro and In Silico Studies” (International Journal of Molecular Sciences, 2021).

Holding throughout (assay type): cell-based, human
Assay [1] has as its system 451-Lu metastatic melanoma cells. Nature of the assay: MTT cell viability assay, 451-Lu. To be noted: 50 to 400 μM, 72 h; for toxicity / cell growth inhibition: 451-Lu; for IC50: Homo sapiens, 451Lu, MTT, mean ± SD. The text has this: (§1) Three malignant melanoma cell lines (Me45, 1205-Lu and 451-Lu; obtained from the collection of the Centre of Oncology, Gliwice, Poland), neonatal human dermal fibroblast (NHDF; Lonza, Basel, Switzerland) and human colorectal adenocarcinoma cells (Caco-2; ATCC, Manassas, VA, USA) were used in the studies. The human malignant melanoma (Me45) cell line (derived from a lymph node metastasis of skin melanoma) was established in 1997 at the Radiobiology Department of the Centre of Oncology in Gliwice. 1205-Lu and 451-Lu cell lines were derived from human melanoma metastases to lungs of immunodeficient mice. The cells were cultivated in the medium DMEM-F12 (PAA, Warsaw, Poland) supplemented with 10% (for Me45, 1205-Lu and 451-Lu and NHDF) or 20% (Caco-2) of fetal bovine serum (FBS, Eurx, Gdansk, Poland). In addition, medium for Caco-2 cells contained Non-essential Amino Acid Solution (1×) (Sigma-Aldrich, Poznan, Poland). All cell lines were grown in the presence of 1% of antibiotics (10,000 μg/mL streptomycin and 10,000 units/mL penicillin; Sigma-Aldrich, Poznan, Poland), at 37 °C in humidified atmosphere with 5% CO2 under standard conditions. All experimental procedures were carried out in log-phase of cell growth. During some experiments melanoma cells were irradiated with X-rays at the dose of 2 Gy at the 24th hour of the incubation. Ionizing radiation was applied using a laboratory X-Cell 140 irradiator (Kubtec, Bridgeport, CT, USA).
(§2) Cells (Me45, 1205-Lu, 451-Lu and NHDF) were seeded on 96-well plates (20,000 cells/mL) 24 h before the experiment. One day later, fresh media containing tested compounds were added. The appropriate control, containing ethanol:DMSO (v/v 1:1) in fresh medium, was also prepared. The plates were incubated for a given time (72 h for Me45, 1205-Lu, 451-Lu and NHDF; 2 h for Caco-2) at 37 °C in humidified atmosphere with 5% CO2. After incubation, the medium was removed and cells were washed with physiological saline (PBS; PAA, Warsaw, Poland). In the next step, the cells were incubated with MTT (3-[4,5-dimethylthiazol-2-yl]-2,5-diphenyltetrazolium bromide, Sigma-Aldrich, Poznan, Poland) (solution of 0.5 mg/mL in RPMI 1640 without phenol red) for 2 h. Then, the MTT solution was removed and the formazan crystals were dissolved in the mixture isopropanol:HCl (v/v 1:0.04; both purchased from Sigma-Aldrich, Poznan, Poland). The absorbance of the obtained product was read at 570 nm using a microplate reader (Epoch; BioTek, Winooski, VT, USA). Survival rate was expressed as the percentage of cell survival and calculated from the ratio (A570 of treated cells/A570 of control cells) × 100%. The experiments were repeated three times.
Background: Tetrazolium dyes change colour on reduction, which living cells bring about.

For assay [2], the system named is 1205-Lu metastatic melanoma cells. Briefly: MTT cell viability assay, 1205-Lu. To be noted: 50 to 400 μM, 72 h; for toxicity / cell growth inhibition: 1205-Lu; for IC50: Homo sapiens, 1205Lu, MTT, mean ± SD.
Description: as §1, §2

Assay [3] has as its system Me45 metastatic melanoma cells. Nature of the assay: MTT cell viability assay, Me45. To be noted: 72 h; for toxicity / cell growth inhibition: Me45, 50 to 400 μM; for IC50: Homo sapiens, MTT, 50 to 400 μM, mean ± SD.
Description: as §1, §2

Assay [4] concerns normal skin fibroblasts NHDF. Nature of the assay: MTT cell viability assay, NHDF. To be noted: 50 to 400 μM, 72 h; for IC50: Homo sapiens, MTT, mean ± SD.
Description: as §1, §2

For assay [5], the system named is 451-Lu cells. Briefly: Annexin-V/PI apoptosis assay, 451-Lu. The settings on record: 100 µM, 72 h. The method, then: (§3) The studies of cell cycle, apoptosis and intracellular level of ROS were performed using the flow cytometry method. For the apoptosis assay, the cells were harvested and centrifuged (1500 rpm, 3 min). The apoptosis was measured using an Annexin-V apoptosis assay (BioLegend, San Diego, CA, USA). After supernatant removal, the cells were washed with PBS and centrifuged again. The pellets of cells were suspended in 50 μL of cold Annexin-V binding buffer and stained with FITC-labeled Annexin-V for 30 min at 37 °C in the dark. The Annexin-V binding buffer and propidium iodide (PI) solution (100 μg/mL; Sigma-Aldrich, Poznan, Poland) were then added and the samples were stored on ice till they were measured.
(§4) Cytometric analyses were performed immediately using an Aria III flow cytometer (Becton Dickinson, Franklin Lakes, NJ, USA) with FITC configuration (488 nm excitation; emission, LP mirror 503, BP filter 530/30) or with PE configuration (547 nm excitation; emission, 585 nm) and at least 10,000 cells were counted.

Assay [6] has as its system 1205-Lu cells. Briefly: Annexin-V/PI apoptosis assay, 1205-Lu. The settings on record: 100 µM. The method, then: as §3, §4
The test system of assay [7] is Me45 cells. Nature of the assay: Annexin-V/PI apoptosis assay, Me45. To be noted: Me45, 100 µM, 72 h. The method, then: as §3, §4
Assay [8] concerns 451-Lu cells. Briefly: Cell cycle analysis (PI, flow cytometry), 451-Lu. To be noted: 100 µM, 72 h, vs untreated control. The method, then: (§5) For cell cycle analysis, harvested cells were centrifuged (1500 rpm, 3 min). After supernatant removal, cells were fixed with a hypotonic buffer, containing PI at 100 µg/mL in PBS, 5 mg/l of citric acid, 1:9 Triton-X solution, 100 µg/mL of RNase in PBS (Sigma-Aldrich, Poznan, Poland). Probes were incubated for 20 min at room temperature in the dark, then stored on ice till they were measured.
as §4

The test system of assay [9] is Me45 cells. Nature of the assay: Cell cycle analysis (PI, flow cytometry), Me45. To be noted: Me45, 100 µM, 72 h, vs untreated control. The method, then: as §5, §4
In the next assay the test system is 451-Lu melanoma cells. Briefly: Intracellular ROS formation (DCFH-DA, flow cytometry), 451-Lu. The settings on record: 72 h, DCF fluorescence. The method, then:
(§6) The experiments on ROS content were performed after 72 h of incubation with the given compounds. The cells were harvested and centrifuged (1500 rpm, 3 min), washed with PBS and centrifuged again. The pellet was resuspended in culture medium and a cell-permeable non-fluorescent probe 2′,7′-dichlorofluorescin diacetate (DCFH-DA, Sigma-Aldrich, Poznan, Poland) at a final concentration of 30 µM was added. The samples were incubated in darkness for 30 min at 37 °C, then stored on ice till they were measured. DCFH-DA is hydrolyzed by cellular esterases into its polar form DCFH. Due to the intracellular ROS and other peroxides, DCFH undergoes oxidation and turns into highly fluorescent compond 2′,7′-dichlorofluorescein (DCF).
as §4
On the technique in general: A flow cytometer gives signals particle by particle.

A further assay deals with Me45 melanoma cells. Briefly: Intracellular ROS formation (DCFH-DA, flow cytometry), Me45. To be noted: Me45, 72 h, DCF fluorescence. The method, then: as §6, §4
The next assay relates to 1205-Lu melanoma cells. Nature of the assay: Intracellular ROS formation (DCFH-DA, flow cytometry), 1205-Lu. The settings on record: 72 h, DCF fluorescence. The method, then: as §6, §4
In assay [10] the test system is 1205-Lu cells. Briefly: Pro-apoptotic activity in combination with ionizing radiation (2 Gy), 1205-Lu. The settings on record: 100 µM, 48 h, X-rays 2 Gy at the 24th hour. The method, then: In the next step, pilot experiments on the pro-apoptotic activity of phenolic acid-PC conjugates in combination with ionizing radiation (IR) were performed. […] The time of incubation with a given compound was reduced to 48 h. X-rays at the dose of 2 Gy were applied at the 24th hour of incubation.
Three malignant melanoma cell lines (Me45, 1205-Lu and 451-Lu; obtained from the collection of the Centre of Oncology, Gliwice, Poland), neonatal human dermal fibroblast (NHDF; Lonza, Basel, Switzerland) and human colorectal adenocarcinoma cells (Caco-2; ATCC, Manassas, VA, USA) were used in the studies. […]
The studies of cell cycle, apoptosis and intracellular level of ROS were performed using the flow cytometry method. […] The apoptosis was measured using an Annexin-V apoptosis assay (BioLegend, San Diego, CA, USA). […] The Annexin-V binding buffer and propidium iodide (PI) solution (100 μg/mL; Sigma-Aldrich, Poznan, Poland) were then added and the samples were stored on ice till they were measured.
as §4

SMILES strings stand for the structures.

Take `COc1ccc(C(=O)O)cc1OC` [1b, 3,4-dimethoxybenzoic acid, reference compound]: the “toxicity / cell growth inhibition” value in assay [1], in assay [2], in [3] and in assay [4] was “non-toxic” each time. The “induction of apoptosis” value in the assay on 451-Lu cells [5], in the assay on 1205-Lu cells [6] (72 h) and with Me45 cells [7] was “no ability to induce apoptosis” each time.

One may read the IC50 as the concentration that inhibits the measured activity by half. A high value points to lower potency. For `CCCCCCCCCCCCCCCC(=O)OC[C@H](COP(=O)([O-])OCC[N+](C)(C)C)OC(=O)c1ccc(OC)c(OC)c1` [5b, 1-palmitoyl-2-veratroyl-sn-glycero-3-phosphocholine], the IC50 was 137 ± 7.7 µM in assay [1], 102 ± 4.1 µM in assay [2], 109 ± 7.6 µM in [3] and 185 ± 13.7 µM in assay [4]. Moreover, the “cell cycle phase distribution” value with 451-Lu cells [8] is given as “increased the fraction of melanoma cells in the sub-G1 phase”; with Me45 cells [9] it was “Increased fraction of Me45 cells in G2/M phase”. In addition, the “induction of apoptosis” value in the assay with Me45 cells [7] is “significantly higher fractions of Me45 cells in the early and late stages of apoptosis”.

In the case of `CCCCCCCCCCCCCCCC(=O)OC[C@H](COP(=O)([O-])OCC[N+](C)(C)C)OC(=O)c1ccc(OC)cc1` [5a, 1-palmitoyl-2-anisoyl-sn-glycero-3-phosphocholine], the IC50 in assay [1] was found to be 97.7 ± 8 µM; in assay [2] it was 71.3 ± 7.7 µM; in assay [3], 122 ± 10 µM; in assay [4], 249 ± 20.9 µM. Besides, the “induction of apoptosis” value with 451-Lu cells [5] and with Me45 cells [7] was “slightly increased” throughout.

For `COc1ccc(C(=O)OC[C@H](COP(=O)([O-])OCC[N+](C)(C)C)OC(=O)c2ccc(OC)cc2)cc1` [3a, 1,2-dianisoyl-sn-glycero-3-phosphocholine], the IC50 in [1] stood at 47.5 ± 2.7 µM; in assay [2], 82 ± 10.5 µM; in [3], 111 ± 4.5 µM; in assay [4], 238 ± 17.8 µM. Besides, the “reactive oxygen species formation (antioxidant activity, words)” value with 451-Lu melanoma cells, with Me45 melanoma cells and in the assay on 1205-Lu melanoma cells was “strongest antioxidant” in each case. Besides, the “cell cycle phase distribution” value in the assay with 451-Lu cells [8] is “increased the fraction of melanoma cells in the sub-G1 phase”. Also, the “fraction of necrotic cells” value in the assay on 451-Lu cells [5] and with 1205-Lu cells [6] (72 h) was “significant increase in the fraction of necrotic cells” throughout. For the same compound, the “induction of apoptosis” value with 451-Lu cells [5], in the assay on 1205-Lu cells [6] (72 h) and in the assay on Me45 cells [7] was “significant potency to induce apoptosis” each time. In the assay with 1205-Lu cells [6] (48 h of incubation, without irradiation), the “fraction of cells in the early stage of apoptosis” value is ~ 17%.

`COc1ccc(C(=O)O)cc1` [1a, 4-methoxybenzoic acid, reference compound]: the “toxicity / cell growth inhibition” value in assay [1], in assay [2], in [3] and in assay [4] was “non-toxic” each time. For the same compound, the “induction of apoptosis” value in the assay with 451-Lu cells [5], in the assay on 1205-Lu cells [6] (72 h) and with Me45 cells [7] was “no ability to induce apoptosis” in each case.

As to `CCCCCCCCCCCCCCCC(=O)O[C@H](COC(=O)c1ccc(OC)c(OC)c1)COP(=O)([O-])OCC[N+](C)(C)C` [8b, 1-veratroyl-2-palmitoyl-sn-glycero-3-phosphocholine], the 50% inhibitory concentration (IC50) worked out at 82.2 ± 14.3 µM in assay [1], 73.2 ± 9.3 µM in [2], 126 ± 3.7 µM in assay [3] and 150 ± 17.9 µM in assay [4]. Besides, the “cell cycle phase distribution” value in the assay with Me45 cells [9] is “Increased fraction of Me45 cells in G2/M phase”. The “pro-apoptotic effect in combination with ionizing radiation” value in the assay with 1205-Lu cells [10] was “most effective combinations”.

For the compound `CCCCCCCCCCCCCCCC(=O)O[C@H](COC(=O)c1ccc(OC)cc1)COP(=O)([O-])OCC[N+](C)(C)C` [8a, 1-anisoyl-2-palmitoyl-sn-glycero-3-phosphocholine], the half-maximal inhibitory concentration (IC50) was found to be 54.1 ± 6.7 µM in assay [1], 62.2 ± 7.1 µM in assay [2], 131 ± 9.9 µM in [3] and 198 ± 20.8 µM in [4]. Also, in the assay on 1205-Lu cells [10], the “pro-apoptotic effect in combination with ionizing radiation” value is “most effective combinations”.
